Data as given in the supplement of paper PMC10307832.

Experiments:
Assay in all cases: relative viability (nuclei count vs DMSO), 5 days (fraction); higher = more cells survive
XMD13-2 + Pictilisib = compound: C1CC1C(=O)NC2=NNC3=C2C=CC(=C3)C4=CC(=CC=C4)C(=O)NC5CC5 [XMD13-2] + CS(=O)(=O)N1CCN(Cc2cc3nc(-c4cccc5[nH]ncc45)nc(N4CCOCC4)c3s2)CC1 [Pictilisib] (partner 1 µM)
Method in brief: (§1)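 A single step with final 0.05% Triton X-100, 1% formaldehyde and 1 ug/ml Hoechst fixed the cells and stained nuclei 5 days after treatment. Lung cancer cell lines in 1536-well plates had been treated by pin tool the day after seeding with one drug alone or a fixed anchor-drug dose plus five library-drug doses (not always all listed) in √10 steps, and nuclei were counted on 4× images. Relative viability is the ratio of nuclei in treated wells to nuclei in vehicle wells, taken as the median of duplicate plates.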

ALW-II-49-7 + OSI-027 = compound: Cc1ccc(C(=O)Nc2cccc(C(F)(F)F)c2)cc1Nc1cncc(C(N)=O)c1 [ALW-II-49-7] + COc1cccc2cc(-c3nc([C@H]4CC[C@H](C(=O)O)CC4)n4ncnc(N)c34)[nH]c12 [OSI-027] (partner 0.5 µM)
Method in brief: as §1

ALW-II-49-7 + Pictilisib = compound: Cc1ccc(C(=O)Nc2cccc(C(F)(F)F)c2)cc1Nc1cncc(C(N)=O)c1 [ALW-II-49-7] + CS(=O)(=O)N1CCN(Cc2cc3nc(-c4cccc5[nH]ncc45)nc(N4CCOCC4)c3s2)CC1 [Pictilisib] (partner 1 µM)
Method in brief: as §1

ALW-II-49-7 + Phenformin = compound: Cc1ccc(C(=O)Nc2cccc(C(F)(F)F)c2)cc1Nc1cncc(C(N)=O)c1 [ALW-II-49-7] + N=C(N)NC(=N)NCCc1ccccc1 [Phenformin] (partner 250 µM)
Method in brief: as §1

Row | Cell Line | relative viability (XMD13-2 + Pictilisib; first compound 0.05 µM) | relative viability (XMD13-2 + Pictilisib; first compound 0.1581 µM) | relative viability (XMD13-2 + Pictilisib; first compound 0.5 µM) | relative viability (XMD13-2 + Pictilisib; first compound 5 µM) | relative viability (ALW-II-49-7 + OSI-027; first compound 0.08 µM) | relative viability (ALW-II-49-7 + OSI-027; first compound 0.253 µM) | relative viability (ALW-II-49-7 + OSI-027; first compound 0.8 µM) | relative viability (ALW-II-49-7 + OSI-027; first compound 2.53 µM) | relative viability (ALW-II-49-7 + OSI-027; first compound 8 µM) | relative viability (ALW-II-49-7 + Pictilisib; first compound 0.08 µM) | relative viability (ALW-II-49-7 + Pictilisib; first compound 0.253 µM) | relative viability (ALW-II-49-7 + Pictilisib; first compound 0.8 µM) | relative viability (ALW-II-49-7 + Pictilisib; first compound 2.53 µM) | relative viability (ALW-II-49-7 + Pictilisib; first compound 8 µM) | relative viability (ALW-II-49-7 + Phenformin; first compound 0.08 µM) | relative viability (ALW-II-49-7 + Phenformin; first compound 0.253 µM) | relative viability (ALW-II-49-7 + Phenformin; first compound 0.8 µM) | relative viability (ALW-II-49-7 + Phenformin; first compound 2.53 µM) | relative viability (ALW-II-49-7 + Phenformin; first compound 8 µM) | relative viability (XMD13-2 + Pictilisib; first compound 1.581 µM)
1 | ChaGo-K-1 | 0.82 | 0.631 | 0.461 | 0.599 | 0.472 | 0.622 | 0.616 | 0.496 | 0.429 | 0.661 | 1.04 | 0.818 | 1.19 | 0.442 | 0.48 | 0.584 | 0.465 | 0.46 | 0.401 | 
2 | EBC-1 | 0.395 | 0.431 | 0.377 | 0.142 |  |  |  |  |  | 0.315 | 0.316 |  | 0.242 | 0.244 |  |  |  |  |  | 0.287
3 | EKVX | 0.476 | 0.401 | 0.434 | 0.388 | 0.579 | 0.773 | 0.578 | 0.653 | 0.679 | 0.42 | 0.475 | 0.438 | 0.398 | 0.499 | 0.233 | 0.229 | 0.215 | 0.261 | 0.224 | 0.42
4 | EMC-BAC-2 | 0.596 | 0.497 | 0.531 | 0.413 | 0.351 | 0.39 | 0.336 | 0.296 | 0.305 | 0.507 | 0.59 | 0.567 | 0.556 | 0.46 | 0.426 | 0.513 | 0.505 | 0.454 | 0.338 | 0.505
5 | EPLC-272H | 0.349 | 0.271 | 0.271 | 0.187 | 0.277 |  | 0.278 | 0.293 | 0.265 | 0.258 | 0.359 | 0.328 | 0.37 | 0.29 | 0.29 |  | 0.23 | 0.342 | 0.303 | 0.23
6 | H3255 | 0.589 | 0.525 | 0.485 | 0.445 | 0.556 | 0.58 | 0.559 | 0.483 | 0.388 | 0.505 | 0.43 | 0.48 | 0.335 | 0.418 | 0.442 | 0.394 | 0.373 | 0.331 | 0.329 | 0.526
7 | HARA | 0.372 | 0.394 | 0.493 | 0.23 | 0.547 | 0.441 | 0.298 | 0.387 | 0.442 | 0.416 | 0.386 | 0.431 | 0.483 | 0.497 | 0.452 | 0.476 | 0.345 | 0.461 | 0.482 | 0.314
8 | HCC-15 | 0.766 | 0.721 | 0.778 | 0.467 | 0.647 | 0.75 | 0.619 | 0.663 | 0.536 | 0.849 | 0.791 | 0.705 | 0.805 | 0.741 | 0.488 | 0.433 | 0.456 | 0.544 | 0.399 | 0.712
9 | HCC-44 | 0.665 | 0.597 | 0.609 | 0.571 |  | 0.743 | 0.325 | 0.533 | 0.414 | 0.513 | 0.693 | 0.638 | 0.535 | 0.646 | 0.261 | 0.203 | 0.231 | 0.277 | 0.211 | 0.533
